SMILES strings stand for the structures. Values after ≈ are worked out from the molar mass of the structure shown. Values joined by “and” are separate entries in the source; they are usually repeats but may differ in a detail not shown here. Equal entries are not always repeated.

Results on 9 molecules are retold here after EPA's ToxValDB 9.5.

For one data set, the system named is Oryctolagus sp. As to conditions: New Zealand; for LD50: acute, dermal.
In data set [1] the test system is Rattus norvegicus. The following applies: for LD50 / LC50: acute.
In the next data set the test system is Mus musculus. The following applies: oral.
The test system of data set [2] is Rattus norvegicus. The following applies: oral, Sprague-Dawley.
Data set [3] concerns Rattus norvegicus. As to conditions: subchronic; duration: 90 days; oral; gavage; M; Sprague-Dawley; Increased hepatocellular hypertrophy (Liver), Decreased total T4 (Thyroid).
[4] abbreviates: subchronic, duration: 30 days, oral, diet, Sprague-Dawley.
The mark [5] stands for this setting: short-term, duration: 28 days, M, Endocrine: Hyperplasia/hypertrophy of follicular epithelium of the thyroid.
The mark [6] stands for this setting: short-term, duration: 28 days, M, Neurological: Delayed pupillary reflex.

Regarding `CCCCCCCCCCc1cccc(Oc2ccccc2S(=O)(=O)[O-])c1S(=O)(=O)[O-].[Na+].[Na+]` [Disodium n-decyldiphenyl ether disulfonate], the LD50 was > 2000 mg/kg in the data set with Oryctolagus sp. (occlusive); > 2000 mg/kg with Rattus norvegicus [1] (oral, gavage, Fischer 344); 3560 mg/kg in the data set with Rattus norvegicus [1] (oral, gavage, Sprague-Dawley).

With `CCCCCCCCCCCCCCCCCCOP1OCC2(CO1)COP(OCCCCCCCCCCCCCCCCCC)OC2` (stereo not given) [Distearyl pentaerythritol diphosphite], the LD50 with Oryctolagus sp. was > 2000 mg/kg; in the data set with Rattus norvegicus [1] (oral, gavage, Sherman Wistar) it was > 10000 mg/kg. Moreover, the NOAEL in the data set on Rattus norvegicus [1] (subchronic, duration: 90 days, oral, diet, Sprague-Dawley) was > 288 mg/kg-day.

On to `CCCCCCCCCCCCCCCCCCN(C)CCCCCCCCCCCCCCCCCC` [Distearylmethylamine], for which the LD50 in the data set on Oryctolagus sp. (occlusive) is > 2000 mg/kg; in the data set with Rattus norvegicus [1] (oral, gavage, Sprague-Dawley), > 5000 mg/kg; in the data set with Rattus norvegicus [1] (oral, gavage, Wistar), > 2000 mg/kg. Further, in the data set on Rattus norvegicus [1] (subchronic, duration: 13 weeks, oral, diet, Sprague-Dawley), the “LOAEL (% diet)” value was 0.15.

Turning to `C=C(C#N)C(=O)OCC` [Ethyl cyanoacrylate], the LD50 is > 2000 mg/kg with Oryctolagus sp. (occlusive) and > 5000 mg/kg in the data set with Rattus norvegicus [1] (oral, gavage). Also, the LC50 with Rattus norvegicus [1] (inhalation, Wistar) was < 21.1 µg/mL.

Turning to `CN(C)CCN(C)C` [N,N,N',N'-Tetramethylethylenediamine], the LD50 in the data set with Oryctolagus sp. turned out to be 1230 mg/kg. The LC50 was > 5610 mg/m3 with Rattus norvegicus [1] (inhalation); > 5610 mg/m3 in the data set with Rattus norvegicus [1] (inhalation, Sprague-Dawley); 6260 mg/m3 with Rattus norvegicus [1] (inhalation, Wistar).

On to `CCNc1cccc(C)c1` [N-Ethyl-3-methylaniline], for which the LD50 in the data set on Oryctolagus sp. is > 2000 mg/kg; with Rattus norvegicus [1] (oral, Sprague-Dawley) it was 787 mg/kg and 478 mg/kg; in the data set with Rattus norvegicus [1] (oral, gavage, Wistar) it was 650 mg/kg. In the data set on Rattus norvegicus [1] (inhalation), this molecule had an LC50 of 2.4 µg/mL (≈ 17.8 µM). The NOAEL with Rattus norvegicus [1] (short-term, duration: 2 weeks, inhalation, Sprague-Dawley) came out at 31 mg/m3.

Turning to `CN1C(=O)c2ccccc2C1=O` [N-Methylphthalimide], the LD50 was > 2000 mg/kg in the data set on Oryctolagus sp. (occlusive); > 500 mg/kg with Rattus norvegicus [1] (oral, Spartan); > 500 mg/kg in the data set with Rattus norvegicus [1] (oral, gavage, Spartan). Besides, the NOAEL is > 500 mg/kg-day with Oryctolagus sp. (developmental, duration: 6 days, oral, gavage); 150 mg/kg-day in the data set with Rattus norvegicus [1] (reproduction developmental, duration: 4 weeks, oral, gavage, F, Sprague-Dawley); ≥ 600 mg/kg-day in the data set on Rattus norvegicus [1] (reproduction developmental, duration: 4 weeks, oral, gavage, M, Sprague-Dawley); 150 mg/kg-day with Rattus norvegicus [1] (reproduction developmental, duration: 4 weeks, oral, gavage, Sprague-Dawley, generation: F0); < 50 mg/kg-day in the data set with Rattus norvegicus [1] (reproduction developmental, duration: 4 weeks, oral, gavage, Sprague-Dawley, generation: F1); 150 mg/kg-day in the data set with Rattus norvegicus [1] (reproduction developmental, oral, gavage, F). Also, the NOAEL in the data set with Rattus norvegicus [1] (reproduction developmental, oral, gavage, generation: F0) was 150 mg/kg-day; in the data set on Rattus norvegicus [1] (reproduction developmental, oral, gavage, generation: F1), 50 mg/kg-day. For the same molecule, the “LOAEL (% diet)” value in the data set on Rattus norvegicus [1] (setting [4]) is 0.5. For the same molecule, the “NOAEL (% diet)” value in the data set with Rattus norvegicus [1] (setting [4]) is 0.25.

Consider `O=C(O)C(F)(F)C(F)(F)C(F)(F)F` [Perfluorobutanoic acid], for which the LOAEL in the data set with Mus musculus (developmental, duration: 18 days, gavage, CD1, Developmental: Eye opening delayed approximately 1 day) amounted to 35 mg/kg-day; in the data set with Rattus norvegicus [2] (setting [5]), 30 mg/kg-day; in the data set with Rattus norvegicus [2] (setting [6]), 150 mg/kg-day; in the data set on Rattus norvegicus [2] (subchronic, duration: 90 days, M, Endocrine: Hypertrophy/hyperplasia of follicular epithelium of the thyroid gland + Hematological: Reduced erythrocyte counts (3.8%), …), 30 mg/kg-day. For the same molecule, the NOAEL is 350 mg/kg-day in the data set on Mus musculus (reproduction developmental, duration: 18 days, gavage, CD1, Hepatic: Significant increase in absolute and relative liver weight at ?[…]); 78 mg/kg-day in the data set on Mus musculus (short-term, duration: 10 days, diet, M, Hepatic: 63% increase in absolute liver weight); 184 mg/kg-day in the data set with Rattus norvegicus [2] (short-term, duration: 5 days, gavage, M/F, Immunotoxicological: No histological alterations + Neurological: No histological alterations + Reproductive: No histological alterations); 20 mg/kg-day in the data set with Rattus norvegicus [2] (short-term, duration: 14 days, diet, M, Hepatic: Biochemical and ultrastructural evidence of peroxisome proliferation); 150 mg/kg-day in the data set on Rattus norvegicus [2] (short-term, duration: 28 days, M/F, Hepatic: Increased absolute and relative liver weight and decreased serum cholesterol in males at ?30 mg/kg/day / hepatocellular …); 6 mg/kg-day in the data set with Rattus norvegicus [2] (setting [5]). Further, the NOAEL stood at 30 mg/kg-day with Rattus norvegicus [2] (setting [6]); 6 mg/kg-day with Rattus norvegicus [2] (subchronic, duration: 90 days, M/F, Hematological: Reduced erythrocyte counts (3.8%), hemoglobin (5.7%), and hematocrit (4.5%)); 30 mg/kg-day with Rattus norvegicus [2] (subchronic, duration: 90 days, M/F, Hepatic: Diffuse panlobular hepatocyte hypertrophy at 30 mg/kg/day in males + Immunotoxicological: No histological alterations + …); 6 mg/kg-day in the data set on Rattus norvegicus [2] (subchronic, duration: 90 days, M, Endocrine: Hypertrophy/hyperplasia of follicular epithelium of the thyroid gland); 6 mg/kg-day with Rattus norvegicus [3].

For the molecule `CC1COC(=O)O1` (stereo not given) [Propylene carbonate], the LD50 in the data set on Oryctolagus sp. (occlusive) is > 3000 mg/kg; with Rattus norvegicus [1] (oral, Sprague-Dawley), > 5000 mg/kg. Besides, the NOAEL is 5000 mg/kg-day in the data set on Rattus norvegicus [1] (developmental, duration: 6 days, oral, gavage, Sprague-Dawley); 5000 mg/kg-day in the data set with Rattus norvegicus [1] (reproduction developmental, duration: 13 weeks, oral, gavage, Sprague-Dawley, generation: F0); 5000 mg/kg-day in the data set with Rattus norvegicus [1] (reproduction developmental, duration: 13 weeks, oral, gavage, Sprague-Dawley, generation: F1); 5000 mg/kg-day in the data set on Rattus norvegicus [1] (reproduction developmental, duration: 13 weeks, oral, gavage, Sprague-Dawley, generation: F2); 1000 mg/m3 with Rattus norvegicus [1] (reproduction developmental, duration: 93 days, inhalation, generation: F0); 1000 mg/m3 in the data set with Rattus norvegicus [1] (reproduction developmental, duration: 93 days, inhalation, generation: F1). For the same molecule, the NOAEL in the data set on Rattus norvegicus [1] (reproduction developmental, duration: 93 days, inhalation, generation: F2) was found to be 1000 mg/m3; with Rattus norvegicus [1] (subchronic, duration: 90 days, oral, gavage, Sprague-Dawley), 5000 mg/kg-day.

Broadly, the LD50 is the dose expected to kill half of the subjects tested. Lower therefore signals greater toxicity. Broadly, the NOAEL is the highest dose or exposure tested at which no adverse effect was seen. As a reminder, the LOAEL is the lowest tested level that showed an adverse finding.
